Data taken from US12319648B2, “Fluorinated phenylacetic acid derivatives in a weed control method” (SYNGENTA CROP PROTECTION AG, priority 2019, dated 2025).

Tests used:
Type in all cases: in vivo
[1] = system: Amaranthus retoflexus (AMARE); test: Post-emergence herbicidal glasshouse test; details: post-emergence, 250 g/ha, 13 days after application
Experimental: (§1) Seeds of a variety of test species are shown in standard soil in pots Amaranthus retoflexus (AMARE), Ipomoea hederacea (IPOHE), Solanum nigrum (SOLNI), Lolium perenne (LOLPE). Echinochloa crus-galli (ECHCG), Setaria faberi (SETFA)). After cultivation for one day (pre-emergence) or after 8 days cultivation (post-emergence) under controlled conditions in a glasshouse (at 24/16° C., day/night; 14 hours light; 65% humidity), the plants are sprayed with an aqueous spray solution derived from the formulation of the technical active ingredient in acetone/water (50:50) solution containing 0.5% Tween 20 (polyoxyethylene sorbitan monolaurate, CAS RN 9005-64-5). Compounds are applied at 250 g/ha unless otherwise stated. The test plants are then grown in a glasshouse under controlled conditions in a glasshouse (at 24/16° C., day/night; 14 hours light; 65% humidity) and watered twice daily. After 13 days for pre and post-emergence, the test is evaluated for the percentage damage caused to the plant. The biological activities are shown in the following table on a five-point scale (5=81-100%; 4=61-80%; 3=41-60%; 2=21-40%; 1=0-20%).
(§2) Using the experimental conditions outlined above, a further test is conducted to compare the herbicidal properties of the difluro containing compound (1.014) with a representative compound (C1) referred to in GB901553. The compounds are applied at 1000 g/ha and 500 g/ha. The test is evaluated for the percentage damage caused to the plant (% phytotoxicity).

[2] = system: Echinochloa crus-galli (ECHCG); test: Post-emergence herbicidal glasshouse test; details: post-emergence, 250 g/ha, 13 days after application
Experimental: as §1, §2

[3] = system: Ipomoea hederacea (IPOHE); test: Post-emergence herbicidal glasshouse test; details: post-emergence, 250 g/ha, 13 days after application
Experimental: as §1, §2

Lolium perenne (LOLPE) [4] = test: Post-emergence herbicidal glasshouse test; details: post-emergence, 250 g/ha, 13 days after application
Experimental: as §1, §2

Setaria faberi (SETFA) [5] = test: Post-emergence herbicidal glasshouse test; details: post-emergence, 250 g/ha, 13 days after application
Experimental: as §1, §2

Solanum nigrum (SOLNI) [6] = test: Post-emergence herbicidal glasshouse test; details: post-emergence, 250 g/ha, 13 days after application
Experimental: as §1, §2

[7] = system: Amaranthus retoflexus (AMARE); test: Pre-emergence herbicidal glasshouse test; details: pre-emergence, 250 g/ha, 13 days after application
Experimental: as §1, §2

[8] = system: Echinochloa crus-galli (ECHCG); test: Pre-emergence herbicidal glasshouse test; details: pre-emergence, 250 g/ha, 13 days after application
Experimental: as §1, §2

[9] = system: Ipomoea hederacea (IPOHE); test: Pre-emergence herbicidal glasshouse test; details: pre-emergence, 250 g/ha, 13 days after application
Experimental: as §1, §2

Lolium perenne (LOLPE) [10] = test: Pre-emergence herbicidal glasshouse test; details: pre-emergence, 250 g/ha, 13 days after application
Experimental: as §1, §2

Setaria faberi (SETFA) [11] = test: Pre-emergence herbicidal glasshouse test; details: pre-emergence, 250 g/ha, 13 days after application
Experimental: as §1, §2

Solanum nigrum (SOLNI) [12] = test: Pre-emergence herbicidal glasshouse test; details: pre-emergence, 250 g/ha, 13 days after application
Experimental: as §1, §2

Q: Which results are given for `O=C(O)C(F)(F)c1cccc(Br)c1F` [Compound 1.033]?
A: percentage damage caused to the plant, five-point scale, AMARE [1]: 5 (5=81-100%); percentage damage caused to the plant, five-point scale, ECHCG [2]: 4 (4=61-80%); percentage damage caused to the plant, five-point scale, IPOHE [3]: 4 (4=61-80%); percentage damage caused to the plant, five-point scale, LOLPE (Lolium perenne (LOLPE) [4]): 1 (1=0-20%); percentage damage caused to the plant, five-point scale, SETFA (Setaria faberi (SETFA) [5]): 4 (4=61-80%); percentage damage caused to the plant, five-point scale, SOLNI (Solanum nigrum (SOLNI) [6]): 5 (5=81-100%); percentage damage caused to the plant, five-point scale, AMARE [7]: 5 (5=81-100%); percentage damage caused to the plant, five-point scale, ECHCG [8]: 4 (4=61-80%); percentage damage caused to the plant, five-point scale, IPOHE [9]: 4 (4=61-80%); percentage damage caused to the plant, five-point scale, LOLPE (Lolium perenne (LOLPE) [10]): 1 (1=0-20%); percentage damage caused to the plant, five-point scale, SETFA (Setaria faberi (SETFA) [11]): 4 (4=61-80%); percentage damage caused to the plant, five-point scale, SOLNI (Solanum nigrum (SOLNI) [12]): 5 (5=81-100%)

Q: `O=C(O)C(F)(F)c1cccc(Cl)c1F` [Compound 1.029] was tested. Which “percentage damage caused to the plant, five-point scale, AMARE” value (from here on “percentage damage caused … AMARE”) [1] did it give?
A: The value was 5 (5=81-100%).

Q: And the “percentage damage caused to the plant, five-point scale, ECHCG” value (from here on “percentage damage caused … ECHCG”) [2]?
A: The value was 2 (2=21-40%).

Q: And the “percentage damage caused to the plant, five-point scale, IPOHE” value (from here on “percentage damage caused … IPOHE”) [3]?
A: Its value is 3 (3=41-60%).

Q: What about the “percentage damage caused to the plant, five-point scale, LOLPE” value (from here on “percentage damage caused … LOLPE”) (Lolium perenne (LOLPE) [4]) of the same molecule?
A: Its value is 1 (1=0-20%).

Q: What about the “percentage damage caused to the plant, five-point scale, SETFA” value (from here on “percentage damage caused … SETFA”) (Setaria faberi (SETFA) [5]) of the same molecule?
A: The value was 3 (3=41-60%).

Q: What about the “percentage damage caused to the plant, five-point scale, SOLNI” value (from here on “percentage damage caused … SOLNI”) (Solanum nigrum (SOLNI) [6]) of the same molecule?
A: The value was 4 (4=61-80%).

Q: What about the “percentage damage caused … AMARE” value [7] of the same molecule?
A: The value was 5 (5=81-100%).

Q: And the “percentage damage caused … ECHCG” value [8]?
A: The value was 1 (1=0-20%).

Q: And the “percentage damage caused … IPOHE” value [9]?
A: Its value is 3 (3=41-60%).

Q: And the “percentage damage caused … LOLPE” value (Lolium perenne (LOLPE) [10])?
A: Its value is 2 (2=21-40%).

Q: And the “percentage damage caused … SETFA” value (Setaria faberi (SETFA) [11])?
A: Its value is 2 (2=21-40%).

Q: What about the “percentage damage caused … SOLNI” value (Solanum nigrum (SOLNI) [12]) of the same molecule?
A: Its value is 5 (5=81-100%).

Q: How did the “percentage damage caused … AMARE” value [1] turn out when `O=C(O)C(F)(F)c1cccc(F)c1F` [Compound 1.031] was run?
A: The value was 3 (3=41-60%).

Q: And the “percentage damage caused … ECHCG” value [2]?
A: The value was 1 (1=0-20%).

Q: What about the “percentage damage caused … IPOHE” value [3] of the same molecule?
A: Its value is 3 (3=41-60%).

Q: What about the “percentage damage caused … LOLPE” value (Lolium perenne (LOLPE) [4]) of the same molecule?
A: Its value is 1 (1=0-20%).

Q: What about the “percentage damage caused … SETFA” value (Setaria faberi (SETFA) [5]) of the same molecule?
A: Its value is 1 (1=0-20%).

Q: What about the “percentage damage caused … SOLNI” value (Solanum nigrum (SOLNI) [6]) of the same molecule?
A: The value was 3 (3=41-60%).

Q: And the “percentage damage caused … AMARE” value [7]?
A: Its value is 1 (1=0-20%).

Q: What about the “percentage damage caused … ECHCG” value [8] of the same molecule?
A: Its value is 1 (1=0-20%).

Q: What about the “percentage damage caused … IPOHE” value [9] of the same molecule?
A: Its value is 3 (3=41-60%).

Q: What about the “percentage damage caused … LOLPE” value (Lolium perenne (LOLPE) [10]) of the same molecule?
A: Its value is 1 (1=0-20%).

Q: And the “percentage damage caused … SETFA” value (Setaria faberi (SETFA) [11])?
A: The value was 1 (1=0-20%).

Q: And the “percentage damage caused … SOLNI” value (Solanum nigrum (SOLNI) [12])?
A: Its value is 1 (1=0-20%).

Q: What does the source list for `O=C(O)C(F)(F)c1cc(Cl)cc(Cl)c1` [Compound 1.007]?
A: percentage damage caused to the plant, five-point scale, AMARE [1]: 3 (3=41-60%); percentage damage caused to the plant, five-point scale, ECHCG [2]: 1 (1=0-20%); percentage damage caused to the plant, five-point scale, IPOHE [3]: 1 (1=0-20%); percentage damage caused to the plant, five-point scale, LOLPE (Lolium perenne (LOLPE) [4]): 1 (1=0-20%); percentage damage caused to the plant, five-point scale, SETFA (Setaria faberi (SETFA) [5]): 1 (1=0-20%); percentage damage caused to the plant, five-point scale, SOLNI (Solanum nigrum (SOLNI) [6]): 3 (3=41-60%); percentage damage caused to the plant, five-point scale, AMARE [7]: 1 (1=0-20%); percentage damage caused to the plant, five-point scale, ECHCG [8]: 1 (1=0-20%); percentage damage caused to the plant, five-point scale, IPOHE [9]: 1 (1=0-20%); percentage damage caused to the plant, five-point scale, LOLPE (Lolium perenne (LOLPE) [10]): 1 (1=0-20%); percentage damage caused to the plant, five-point scale, SETFA (Setaria faberi (SETFA) [11]): 1 (1=0-20%); percentage damage caused to the plant, five-point scale, SOLNI (Solanum nigrum (SOLNI) [12]): 1 (1=0-20%)

Q: How did the “percentage damage caused … AMARE” value [1] turn out when `COC(=O)C(F)(F)c1c(Cl)ccc(Cl)c1Cl` [Compound 1.002] was run?
A: Its value is 4 (4=61-80%).

Q: What about the “percentage damage caused … ECHCG” value [2] of the same molecule?
A: Its value is 1 (1=0-20%).

Q: What about the “percentage damage caused … IPOHE” value [3] of the same molecule?
A: Its value is 2 (2=21-40%).

Q: What about the “percentage damage caused … LOLPE” value (Lolium perenne (LOLPE) [4]) of the same molecule?
A: The value was 1 (1=0-20%).

Q: What about the “percentage damage caused … SETFA” value (Setaria faberi (SETFA) [5]) of the same molecule?
A: The value was 1 (1=0-20%).

Q: And the “percentage damage caused … SOLNI” value (Solanum nigrum (SOLNI) [6])?
A: The value was 4 (4=61-80%).

Q: What about the “percentage damage caused … AMARE” value [7] of the same molecule?
A: The value was 4 (4=61-80%).

Q: What about the “percentage damage caused … ECHCG” value [8] of the same molecule?
A: Its value is 1 (1=0-20%).

Q: And the “percentage damage caused … IPOHE” value [9]?
A: Its value is 1 (1=0-20%).

Q: And the “percentage damage caused … LOLPE” value (Lolium perenne (LOLPE) [10])?
A: Its value is 1 (1=0-20%).

Q: What about the “percentage damage caused … SETFA” value (Setaria faberi (SETFA) [11]) of the same molecule?
A: The value was 1 (1=0-20%).

Q: And the “percentage damage caused … SOLNI” value (Solanum nigrum (SOLNI) [12])?
A: Its value is 1 (1=0-20%).

Q: `O=C(O)C(F)(F)c1c(Cl)ccc(Cl)c1Cl` [Compound 1.001] was tested. Which “percentage damage caused … AMARE” value [1] did it give?
A: The value was 5 (5=81-100%).

Q: And the “percentage damage caused … ECHCG” value [2]?
A: Its value is 1 (1=0-20%).

Q: What about the “percentage damage caused … IPOHE” value [3] of the same molecule?
A: Its value is 4 (4=61-80%).

Q: What about the “percentage damage caused … LOLPE” value (Lolium perenne (LOLPE) [4]) of the same molecule?
A: The value was 1 (1=0-20%).

Q: And the “percentage damage caused … SETFA” value (Setaria faberi (SETFA) [5])?
A: Its value is 3 (3=41-60%).

Q: And the “percentage damage caused … SOLNI” value (Solanum nigrum (SOLNI) [6])?
A: The value was 4 (4=61-80%).

Q: And the “percentage damage caused … AMARE” value [7]?
A: Its value is 5 (5=81-100%).

Q: What about the “percentage damage caused … ECHCG” value [8] of the same molecule?
A: Its value is 1 (1=0-20%).

Q: What about the “percentage damage caused … IPOHE” value [9] of the same molecule?
A: Its value is 3 (3=41-60%).

Q: What about the “percentage damage caused … LOLPE” value (Lolium perenne (LOLPE) [10]) of the same molecule?
A: The value was 1 (1=0-20%).

Q: And the “percentage damage caused … SETFA” value (Setaria faberi (SETFA) [11])?
A: The value was 1 (1=0-20%).

Q: What about the “percentage damage caused … SOLNI” value (Solanum nigrum (SOLNI) [12]) of the same molecule?
A: The value was 1 (1=0-20%).
